Laboratory results: US8735425B2, “Tetrahydroisoquinoline derivative” (Daiichi Sankyo Company, Limited, priority 2008, dated 2014)

Key:
Male C57BL/6N mice = assay: Triglyceride absorption suppression after fat loading (in vivo DGAT1 inhibitory effect); conditions: Mus musculus, po; dose of 10 mg/kg or lower, orally administered, mice fasted overnight, plasma triglyceride after fat loading; read-out: Triglyceride absorption suppressive activity
Protocol: The DGAT1 enzyme is important for the digestion and absorption of triglycerides, and the inhibition of DGAT1 in the small intestine suppresses the absorption of triglycerides. The in vivo activity of its DGAT1 inhibitory effect was evaluated with the suppressed absorption of triglycerides after fat loading as an index. Male C57BL/6N mice (7-12 weeks old, body weight: 17-25 g, Charles River Laboratories Japan Inc.) fasted overnight were assigned to Vehicle group 1, Vehicle group 2, and each test compound group, to which a vehicle (0.5% methylcellulose) or each test compound (1 to 10 mg/kg) suspended in vehicle was orally administered (5 mL/kg). After a given time, a lipoprotein lipase inhibitor (Pluronic-F127: Sigma-Aldrich Corp., 1 g/kg, 20% by weight dissolved in saline) was intraperitoneally administered (5 mL/kg) to each group. Immediately thereafter, distilled water for the Vehicle group 1 or a 20% fat-containing emulation (Intralipid 20%: TERUMO CORP., Japan) for the Vehicle group 2 and the compound groups were orally administered thereto (0.2 mL/mouse). After a given time of 1 to 4 hours after administration, blood was collected from the tail vein or the right ventricle, and plasma was immediately separated and collected. Then, the triglyceride concentration in plasma was measured using a commercially available kit (Triglyceride E-Test Wako: Wako Pure Chemical Industries, Ltd.). In this method, the administration of the lipoprotein lipase inhibitor suppresses the hydrolysis of triglycerides in the blood such that the triglycerides are accumulated in the blood. These triglycerides are derived from two origins: exogenous triglycerides absorbed in the gastrointestinal tract and endogenous triglycerides released from the liver. The triglyceride absorption suppressive activity of each test compound was calculated based on the equation shown below by removing the influence of the endogenous triglycerides. In this context, each test compound was separately confirmed to have no influence on the concentration of the endogenous triglycerides.
Triglyceride absorption suppressive activity (%)=100−[(Triglyceride concentration of each test compound group)−(Triglyceride concentration of Vehicle group 1)]/[(Triglyceride concentration of Vehicle group 2)−(Triglyceride concentration of Vehicle group 1)]×100

DGAT1 enzyme = target: T1, DGAT1 enzyme (Homo sapiens, UniProt O75907); assay: DGAT1 inhibitory activity test; assay type: biochemical; conditions: test compound concentration of 0.05 μg/ml; read-out: Inhibitory Rate
T1 construct: made in house
T1 sequence (O75907 1-488): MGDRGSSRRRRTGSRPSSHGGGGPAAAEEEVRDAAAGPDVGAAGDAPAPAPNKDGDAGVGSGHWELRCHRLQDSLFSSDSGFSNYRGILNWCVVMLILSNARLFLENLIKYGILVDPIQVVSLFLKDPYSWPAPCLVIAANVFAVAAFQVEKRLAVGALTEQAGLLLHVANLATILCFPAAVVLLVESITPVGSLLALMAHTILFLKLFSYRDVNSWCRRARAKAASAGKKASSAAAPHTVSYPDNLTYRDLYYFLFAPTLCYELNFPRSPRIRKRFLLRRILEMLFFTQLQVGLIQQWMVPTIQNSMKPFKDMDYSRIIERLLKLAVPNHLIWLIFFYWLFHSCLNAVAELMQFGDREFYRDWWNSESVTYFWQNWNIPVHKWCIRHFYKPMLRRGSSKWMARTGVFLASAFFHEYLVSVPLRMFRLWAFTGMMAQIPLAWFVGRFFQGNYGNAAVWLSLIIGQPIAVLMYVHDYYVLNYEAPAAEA
Protocol: DGAT1 enzyme was prepared and stored according to the method described in US2007/0249620.
(2) DGAT1 Inhibitory Activity Test
A reaction solution having the following composition was incubated at room temperature (23° C.) for 30 minutes: 175 mM Tris-HCl (pH 8.0), 8 mM MgCl2, 1 mg/ml BSA, 0.3 mM 1,2-dioleoyl-sn-glycerol (10-fold concentration of EtOH solution, 10% added), 10 μM [^14C]-oleoyl-CoA (approximately 50 mCi/mmol), 0.5% Triton X-100, the DGAT1 enzyme (10 μg) obtained in Test Example 1(1), and a test compound or vehicle (DMSO/MeOH, 7:3 solution, 5% added), […] in total. A reaction stop solution ([…] consisting of isopropanol/1-heptane/water (80:20:2, v/v/v) was added to the reaction solution and stirred. Subsequently, water (30 μl) and 1-heptane (100 μl) were added thereto and stirred. The 1-heptane layer (50 μl) was spotted onto a TLC plate and developed with a developing solvent consisting of 1-hexane/diethyl ether/acetic acid (85:15:1, v/v/v). The radioactivity of the triglyceride fraction was quantified using BAS2000 Bio Image Analyzer (FUJIFILM) and compared with the control. The inhibitory activity of the test compound was calculated according to the formula shown below. In this context, the radioactivity at no reaction (0 minute incubation) was used as background. Inhibitory Rate=100−[(Radioactivity of sample supplemented with test compound)−(Background)]/[(Radioactivity of control)−(Background)]×100

Row | inhibition at 0.05 µg/mL (DGAT1 enzyme) | SMILES | inhibition in vivo at up to 10 mg/kg (Male C57BL/6N mice)
1 | ≥ 50% | O=C(O)C[C@H]1CC[C@H](OC(=O)N2CCc3cc(NC(=O)Nc4ccccc4F)ccc3C2)C1 (relative stereo) [Example 7, trans-6-[3-(2-fluoro-phenyl)-ureido]-3,4-dihydro-1H-isoquinoline-2-carboxylic acid 3-carboxymethyl-cyclopentyl ester] | ≥ 60%
2 | ≥ 50% | C[C@H]1C[C@H](CC(=O)O)CC[C@H]1OC(=O)N1CCc2cc(NC(=O)Nc3ccccc3F)ccc2C1 (relative stereo) [Example 15, 6-[3-(2-fluoro-phenyl)-ureido]-3,4-dihydro-1H-isoquinoline-2-carboxylic acid t-4-carboxymethyl-c-2-methyl-r-1-cyclohexyl ester] | ≥ 60%
3 | ≥ 50% | C[C@@H]1C[C@H](CC(=O)O)CC[C@H]1OC(=O)N1CCc2cc(NC(=O)Nc3ccccc3F)ccc2C1 (relative stereo) [Example 16, 6-[3-(2-fluoro-phenyl)-ureido]-3,4-dihydro-1H-isoquinoline-2-carboxylic acid t-4-carboxymethyl-t-2-methyl-r-1-cyclohexyl ester] | ≥ 60%
4 | ≥ 50% | CCOc1cccc(NC(=O)Nc2ccc3c(c2)CCN(C(=O)O[C@@H]2CC[C@@H](CC(=O)O)C[C@H]2C)C3)c1 (relative stereo) [Example 99, 6-[3-(3-ethoxy-phenyl)-ureido]-3,4-dihydro-1H-isoquinoline-2-carboxylic acid t-4-carboxymethyl-t-2-methyl-r-1-cyclohexyl ester] | ≥ 60%
5 | ≥ 50% | CCOc1cccc(NC(=O)Nc2ccc3c(c2)CCN(C(=O)O[C@@H]2CC[C@@H](CC(=O)O)C[C@@H]2C)C3)c1 (relative stereo) [Example 100, 6-[3-(3-ethoxy-phenyl)-ureido]-3,4-dihydro-1H-isoquinoline-2-carboxylic acid t-4-carboxymethyl-c-2-methyl-r-1-cyclohexyl ester] | ≥ 60%
6 | ≥ 50% | COc1cccc(NC(=O)Nc2ccc3c(c2)CCN(C(=O)O[C@@H]2CC[C@@H](CC(=O)O)C[C@H]2C)C3)c1 (relative stereo) [Example 101, 6-[3-(3-methoxy-phenyl)-ureido]-3,4-dihydro-1H-isoquinoline-2-carboxylic acid t-4-carboxymethyl-t-2-methyl-r-1-cyclohexyl ester] | ≥ 60%
7 | ≥ 50% | O=C(O)C[C@H]1CC[C@H](OC(=O)N2CCc3cc(NC(=O)Nc4ccccc4F)ccc3C2)CC1 [Example 2, trans-6-[3-(2-fluoro-phenyl)-ureido]-3,4-dihydro-1H-isoquinoline-2-carboxylic acid 4-carboxymethyl-cyclohexyl ester] | ≥ 60%
8 | ≥ 50% | O=C(O)CCC1CCC(OC(=O)N2CCc3cc(NC(=O)Nc4ccccc4F)ccc3C2)CC1 (stereo not shown) [Example 10, 6-[3-(2-fluoro-phenyl)-ureido]-3,4-dihydro-1H-isoquinoline-2-carboxylic acid 4-(2-carboxy-ethyl)-cyclohexyl ester] | ≥ 60%
9 | ≥ 50% | CCOc1cccc(NC(=O)Nc2ccc3c(c2)CCN(C(=O)O[C@H]2CC[C@H](CC(=O)O)CC2)C3)c1 [Example 20, trans-6-[3-(3-ethoxy-phenyl)-ureido]-3,4-dihydro-1H-isoquinoline-2-carboxylic acid 4-carboxymethyl-cyclohexyl ester] | ≥ 60%
10 | ≥ 50% | COc1ccccc1NC(=O)Nc1ccc2c(c1)CCN(C(=O)O[C@H]1CC[C@H](CC(=O)O)CC1)C2 [Example 21, trans-6-[3-(2-methoxy-phenyl)-ureido]-3,4-dihydro-1H-isoquinoline-2-carboxylic acid 4-carboxymethyl-cyclohexyl ester] | ≥ 60%

The remaining lines, values behind:

Row | SMILES | inhibition at 0.05 µg/mL (DGAT1 enzyme) | inhibition in vivo at up to 10 mg/kg (Male C57BL/6N mice)
11 | O=C(O)CC1CCC(NC(=O)N2CCc3cc(NC(=O)Nc4ccccc4F)ccc3C2)CC1 (stereo not shown) [Example 5, [4-({6-[3-(2-fluoro-phenyl)-ureido]-3,4-dihydro-1H-isoquinoline-2-carbonyl}-amino)-cyclohexyl]-acetic acid] | ≥ 50% | ≥ 60%
12 | O=C(Nc1ccc2c(c1)CCN(C(=O)O[C@H]1CC[C@H](C(=O)O)CC1)C2)Nc1ccccc1F [Example 8, trans-6-[3-(2-fluoro-phenyl)-ureido]-3,4-dihydro-1H-isoquinoline-2-carboxylic acid 4-carboxy-cyclohexyl ester] | ≥ 50% | ≥ 60%
13 | O=C(O)C=C1CCC(OC(=O)N2CCc3cc(NC(=O)Nc4ccccc4F)ccc3C2)CC1 (stereo not shown) [Example 11, 6-[3-(2-fluoro-phenyl)-ureido]-3,4-dihydro-1H-isoquinoline-2-carboxylic acid 4-carboxymethylene-cyclohexyl ester] | ≥ 50% | ≥ 60%
14 | O=C(O)CC1=CCC(OC(=O)N2CCc3cc(NC(=O)Nc4ccccc4F)ccc3C2)CC1 (stereo not shown) [Example 12, 6-[3-(2-fluoro-phenyl)-ureido]-3,4-dihydro-1H-isoquinoline-2-carboxylic acid 4-carboxymethyl-cyclohex-3-enyl-ester] | ≥ 50% | ≥ 60%
15 | CC(C)(C(=O)O)[C@H]1CC[C@H](OC(=O)N2CCc3cc(NC(=O)Nc4ccccc4F)ccc3C2)CC1 [Example 13, trans-6-[3-(2-fluoro-phenyl)-ureido]-3,4-dihydro-1H-isoquinoline-2-carboxylic acid 4-(carboxy-1-methyl-ethyl)-cyclohexyl ester] | ≥ 50% | ≥ 60%
16 | O=C(O)CC1CCC(CC(=O)N2CCc3cc(NC(=O)Nc4ccccc4F)ccc3C2)CC1 (stereo not shown) [Example 17, [4-(2-{6-[3-(2-fluoro-phenyl)-ureido]-3,4-dihydro-1H-isoquinolin-2-yl}-2-oxoethyl)-cyclohexyl]-acetic acid] | ≥ 50% | ≥ 60%
17 | O=C(Nc1ccc2c(c1)CCN(C(=O)O[C@H]1CC[C@H](CC(=O)OC[C@H](O)CO)CC1)C2)Nc1ccccc1F [Example 46, trans-6-[3-(2-fluoro-phenyl)-ureido]-3,4-dihydro-1H-isoquinoline-2-carboxylic acid 4-((R)-2,3-dihydroxy-propoxycarbonylmethyl)-cyclohexyl ester] |  | ≥ 60%
18 | CC(C)NC(=O)Nc1ccc2c(c1)CCN(C(=O)O[C@H]1CC[C@H](CC(=O)O)CC1)C2 [Example 81, trans-6-(3-isopropyl-ureido)-3,4-dihydro-1H-isoquinoline-2-carboxylic acid 4-carboxymethyl-cyclohexyl ester] |  | ≥ 60%
